# What was measured:
# [1] = Pharmacokinetics in the monkey, 21 day continuous intravenous infusion; type: in vivo
# Method: (§1) The toxicokinetics and tissue distribution of SEQ ID NO:1 (and related oligonucleotide metabolites obtained from exonuclease-mediated chain shortening) were determined in rats and monkeys. In addition to investigating the pharmacokinetics and tissue distribution of SEQ ID NO:1, the purpose of the studies was to correlate adverse effects in the animal studies to the concentrations of SEQ ID NO:1 (and metabolites) in tissue and blood. A capillary electrophoresis (CE) method was used to measure the concentrations of SEQ ID NO:1 (and metabolites) in plasma and tissues.
# SEQ ID NO:1 was administered to monkeys by continuous intravenous infusion for 21 days followed by a 21-day recovery period. Twenty-eight monkeys were administered one of the following dose levels; vehicle control, 2, 10, or 50 mg/kg/day (24.6, 123, and 615 mg/m^2/day). Toxicokinetic samples were collected prior to the initiation of infusion, approximately 8, 24, 48, and 96 hours following the start of infusion, and on Day 20 prior to the change in dose-syringes.
# [2] = Tissue distribution in the rat (CE method); type: in vivo
# Method: as §1
# The concentrations of SEQ ID NO:1 (and related n+1, n−1 to n−15 oligonucleotide metabolites) in the following rat and monkey tissues were measured by a validated CE method (Southwest Bio-Labs, Inc.): kidney, liver, spleen, heart, lung, bone marrow (rat), lymph nodes (monkey) and brain tissues. The tissue samples were collected from the designated animals as described in the 21-day toxicity studies: rats, administered bolus intravenous injections of SEQ ID NO:1 every other day at 2, 10, or 50 mg/kg; and monkeys administered SEQ ID NO:1 by continuous intravenous infusion at 2, 10, or 50 mg/kg/day.
# [3] = 10 mg/kg/day continuous i.v. infusion 21 days
# [4] = 50 mg/kg/day continuous i.v. infusion 21 days
# [5] = 2 mg/kg bolus i.v. every other day, 4 hrs post first dose
# [6] = 2 mg/kg bolus i.v. every other day, 4 hrs post last dose
# [7] = 2 mg/kg bolus i.v. every other day, 48 hrs post first dose
# [8] = 10 mg/kg bolus i.v. every other day, 4 hrs post first dose
substance,measurement,setting,value
"5′-GGCTAAATCGCTCCACCAAG-3′ (all phosphorothioate, sugars by position and methylation of C not given here) [SEQ ID NO: 1, fully phosphorothioated antisense oligonucleotide that hybridizes to the coding region of R2 mRNA]",Plasma concentrations,[1]; 2 mg/kg dose group,could not be detected
same,median Tmax,[1]; 10 mg/kg dose group,20 days
same,Cl,[1]; [3],3.47 ± 0.867 mL/min/kg
same,Cmax,[1]; [3],2.94 µg/mL
same,Css,[1]; [3],2.10 ± 0.48 µg/mL
same,Tmax (mean),[1]; [3],13.5 days
same,median Tmax,[1]; 50 mg/kg dose group,1 days
same,Cl,[1]; [4],2.17 ± 0.267 mL/min/kg
same,Cmax,[1]; [4],20.3 µg/mL
same,Css,[1]; [4],16.2 ± 2.2 µg/mL
same,Tmax (mean),[1]; [4],7.12 days
same,Time to steady state plasma concentration,[1]; continuous i.v. infusion,steady state by eight hours after dosing
same,Rank order of tissue concentrations,[2],kidney>liver>bone marrow>spleen>heart>lung
same,"Mean Concentration SEQ ID NO: 1, Bone Marrow",[2]; [5],BDL (below detectable limits (1 μg/g rat; 0.2 μg/g monkey))
same,"Mean Concentration SEQ ID NO: 1, Brain",[2]; [5],BDL (below detectable limits (1 μg/g rat; 0.2 μg/g monkey))
same,"Mean Concentration SEQ ID NO: 1, Heart",[2]; [5],0.8 µg/g
same,"Mean Concentration SEQ ID NO: 1, Kidney",[2]; [5],6.7 µg/g
same,"Mean Concentration SEQ ID NO: 1, Liver",[2]; [5],6.9 µg/g
same,"Mean Concentration SEQ ID NO: 1, Lung",[2]; [5],BDL (below detectable limits (1 μg/g rat; 0.2 μg/g monkey))
same,"Mean Concentration SEQ ID NO: 1, Spleen",[2]; [5],1.0 µg/g
same,"Mean Concentration total metabolites (n + 1 through n − 13), Bone Marrow",[2]; [5],BDL (below detectable limits (1 μg/g rat; 0.2 μg/g monkey))
same,"Mean Concentration total metabolites (n + 1 through n − 13), Brain",[2]; [5],BDL (below detectable limits (1 μg/g rat; 0.2 μg/g monkey))
same,"Mean Concentration total metabolites (n + 1 through n − 13), Heart",[2]; [5],0.3 µg/g
same,"Mean Concentration total metabolites (n + 1 through n − 13), Kidney",[2]; [5],20.8 µg/g
same,"Mean Concentration total metabolites (n + 1 through n − 13), Liver",[2]; [5],16.9 µg/g
same,"Mean Concentration total metabolites (n + 1 through n − 13), Lung",[2]; [5],BDL (below detectable limits (1 μg/g rat; 0.2 μg/g monkey))
same,"Mean Concentration total metabolites (n + 1 through n − 13), Spleen",[2]; [5],1.2 µg/g
same,"Mean Concentration SEQ ID NO: 1, Bone Marrow",[2]; [6],1.8 µg/g
same,"Mean Concentration SEQ ID NO: 1, Brain",[2]; [6],BDL (below detectable limits (1 μg/g rat; 0.2 μg/g monkey))
same,"Mean Concentration SEQ ID NO: 1, Heart",[2]; [6],BDL (below detectable limits (1 μg/g rat; 0.2 μg/g monkey))
same,"Mean Concentration SEQ ID NO: 1, Kidney",[2]; [6],28.0 µg/g
same,"Mean Concentration SEQ ID NO: 1, Liver",[2]; [6],13.8 µg/g
same,"Mean Concentration SEQ ID NO: 1, Lung",[2]; [6],0.9 µg/g
same,"Mean Concentration SEQ ID NO: 1, Spleen",[2]; [6],1.8 µg/g
same,"Mean Concentration total metabolites (n + 1 through n − 13), Bone Marrow",[2]; [6],3.8 µg/g
same,"Mean Concentration total metabolites (n + 1 through n − 13), Brain",[2]; [6],BDL (below detectable limits (1 μg/g rat; 0.2 μg/g monkey))
same,"Mean Concentration total metabolites (n + 1 through n − 13), Heart",[2]; [6],BDL (below detectable limits (1 μg/g rat; 0.2 μg/g monkey))
same,"Mean Concentration total metabolites (n + 1 through n − 13), Kidney",[2]; [6],122.8 µg/g
same,"Mean Concentration total metabolites (n + 1 through n − 13), Liver",[2]; [6],42.1 µg/g
same,"Mean Concentration total metabolites (n + 1 through n − 13), Lung",[2]; [6],0.2 µg/g
same,"Mean Concentration total metabolites (n + 1 through n − 13), Spleen",[2]; [6],6.5 µg/g
same,"Mean Concentration SEQ ID NO: 1, Bone Marrow",[2]; [7],BDL (below detectable limits (1 μg/g rat; 0.2 μg/g monkey))
same,"Mean Concentration SEQ ID NO: 1, Brain",[2]; [7],BDL (below detectable limits (1 μg/g rat; 0.2 μg/g monkey))
same,"Mean Concentration SEQ ID NO: 1, Heart",[2]; [7],BDL (below detectable limits (1 μg/g rat; 0.2 μg/g monkey))
same,"Mean Concentration SEQ ID NO: 1, Kidney",[2]; [7],1.0 µg/g
same,"Mean Concentration SEQ ID NO: 1, Liver",[2]; [7],BDL (below detectable limits (1 μg/g rat; 0.2 μg/g monkey))
same,"Mean Concentration SEQ ID NO: 1, Lung",[2]; [7],BDL (below detectable limits (1 μg/g rat; 0.2 μg/g monkey))
same,"Mean Concentration SEQ ID NO: 1, Spleen",[2]; [7],BDL (below detectable limits (1 μg/g rat; 0.2 μg/g monkey))
same,"Mean Concentration total metabolites (n + 1 through n − 13), Bone Marrow",[2]; [7],BDL (below detectable limits (1 μg/g rat; 0.2 μg/g monkey))
same,"Mean Concentration total metabolites (n + 1 through n − 13), Brain",[2]; [7],BDL (below detectable limits (1 μg/g rat; 0.2 μg/g monkey))
same,"Mean Concentration total metabolites (n + 1 through n − 13), Heart",[2]; [7],BDL (below detectable limits (1 μg/g rat; 0.2 μg/g monkey))
same,"Mean Concentration total metabolites (n + 1 through n − 13), Kidney",[2]; [7],3.6 µg/g
same,"Mean Concentration total metabolites (n + 1 through n − 13), Liver",[2]; [7],BDL (below detectable limits (1 μg/g rat; 0.2 μg/g monkey))
same,"Mean Concentration total metabolites (n + 1 through n − 13), Lung",[2]; [7],BDL (below detectable limits (1 μg/g rat; 0.2 μg/g monkey))
same,"Mean Concentration total metabolites (n + 1 through n − 13), Spleen",[2]; [7],BDL (below detectable limits (1 μg/g rat; 0.2 μg/g monkey))
same,"Mean Concentration SEQ ID NO: 1, Bone Marrow",[2]; [8],2.7 µg/g
same,"Mean Concentration SEQ ID NO: 1, Brain",[2]; [8],BDL (below detectable limits (1 μg/g rat; 0.2 μg/g monkey))
same,"Mean Concentration SEQ ID NO: 1, Heart",[2]; [8],1.5 µg/g
same,"Mean Concentration SEQ ID NO: 1, Kidney",[2]; [8],31.1 µg/g
same,"Mean Concentration SEQ ID NO: 1, Liver",[2]; [8],19.7 µg/g
same,"Mean Concentration SEQ ID NO: 1, Lung",[2]; [8],1.6 µg/g
same,"Mean Concentration SEQ ID NO: 1, Spleen",[2]; [8],2.6 µg/g
same,"Mean Concentration total metabolites (n + 1 through n − 13), Bone Marrow",[2]; [8],3.5 µg/g
same,"Mean Concentration total metabolites (n + 1 through n − 13), Brain",[2]; [8],BDL (below detectable limits (1 μg/g rat; 0.2 μg/g monkey))
same,"Mean Concentration total metabolites (n + 1 through n − 13), Heart",[2]; [8],4.2 µg/g
same,"Mean Concentration total metabolites (n + 1 through n − 13), Kidney",[2]; [8],88.1 µg/g
same,"Mean Concentration total metabolites (n + 1 through n − 13), Liver",[2]; [8],47.9 µg/g
same,"Mean Concentration total metabolites (n + 1 through n − 13), Lung",[2]; [8],2.3 µg/g
same,"Mean Concentration total metabolites (n + 1 through n − 13), Spleen",[2]; [8],7.8 µg/g
same,"Mean Concentration SEQ ID NO: 1, Bone Marrow","[2]; 10 mg/kg bolus i.v. every other day, 4 hrs post last dose",3.6 µg/g

# From patent publication US7968526B2, “Antisense oligonucleotides directed to ribonucleotide reductase R2 and uses thereof in the treatment of cancer” (Lorus Therapeutics Inc., priority 2003, dated 2011)
